Results published in patent US20080207708A1, “Oxazole and Thiazole Compounds and Their Use in the Treatment of Pge2 Mediated Disorders” (GLAXO GROUP LIMITED, priority 2005, published 2008).
Structures can show the parent of a compound that is named as a salt.

Molecular target: T1, EP1 receptors (Homo sapiens, UniProt P34995)
T1 sequence (P34995 1-402): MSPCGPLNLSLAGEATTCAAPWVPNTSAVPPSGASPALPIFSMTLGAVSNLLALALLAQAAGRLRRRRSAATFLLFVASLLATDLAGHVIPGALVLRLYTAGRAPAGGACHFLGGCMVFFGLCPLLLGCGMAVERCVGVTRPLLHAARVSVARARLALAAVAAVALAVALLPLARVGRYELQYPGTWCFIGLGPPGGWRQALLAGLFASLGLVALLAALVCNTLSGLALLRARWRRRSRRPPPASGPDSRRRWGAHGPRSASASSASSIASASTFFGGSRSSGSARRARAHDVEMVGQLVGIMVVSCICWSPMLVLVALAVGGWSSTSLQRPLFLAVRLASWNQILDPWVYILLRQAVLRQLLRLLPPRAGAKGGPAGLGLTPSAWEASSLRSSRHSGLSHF
Experiment: Binding assay for the human prostanoid EP1 receptor (competition with [3H]-PGE2)
Set-up: expressed in transfected cells; host or cells: CHO-K1 cells, membrane fraction
Conditions: [3H]-PGE2 competition; averages of a number of experiments; read-out: pIC50 value, binding assay for the human prostanoid EP1 receptor (converted)
Method: Competition assay using [^3H]-PGE2.
Compound potencies are determined using a radioligand binding assay. In this assay compound potencies are determined from their ability to compete with tritiated prostaglandin E2 ([^3H]-PGE2) for binding to the human EP1 receptor.
This assay utilises Chinese hamster ovary-K1 (CHO-K1) cells into which a stable vector containing the EP1 cDNA has previously been transfected. Cells are cultured in suitable flasks containing culture medium such as DMEM:F-12 supplemented with 10% v/v foetal calf serum, 2 mM L-glutamine, 0.25 mg/ml geneticin, 10 μg/ml puromycin and 10 μM indomethacin.
Cells are detached from the culture flasks by incubation in calcium and magnesium free phosphate buffered saline containing 1 mM disodium ethylenediaminetetraacetic acid (Na2EDTA) and 10 μM indomethacin for 5 min. The cells are isolated by centrifugation at 250×g for 5mins and suspended in an ice cold buffer such as 50 mM Tris, 1 mM Na2EDTA, 140 mM NaCl, 10 μM indomethacin (pH 7.4). The cells are homogenised using a Polytron tissue disrupter (2×10 s burst at full setting), centrifuged at 48,000×g for 20mins and the pellet containing the membrane fraction is washed (optional) three times by suspension and centrifugation at 48,000×g for 20mins. The final membrane pellet is suspended in an assay buffer such as 10 mM 2-[N-morpholino]ethanesulphonic acid, 1 mM Na2EDTA, 10 mM MgCl2 (pH 6). Aliquots are frozen at […] until required.
For the binding assay the cell membranes, competing compounds and [^3H]-PGE2 (3 nM final assay concentration) are incubated in a final volume of 100 μl for 30 min at 30° C. All reagents are prepared in assay buffer. Reactions are terminated by rapid vacuum filtration over GF/B filters using a Brandell cell harvester. The filters are washed with ice cold assay buffer, dried and the radioactivity retained on the filters is measured by liquid scintillation counting in Packard TopCount scintillation counter.
The data are analysed using non linear curve fitting techniques to determine the concentration of compound producing 50% inhibition of specific binding (IC50).

SMILES | IC50 [nM]
O=C(O)c1csc(Cc2cc(C(F)(F)F)ccc2OCc2ccc(F)cc2)n1 [Example 25, Sodium 2-{[2-{[(4-fluorophenyl)methyl]oxy}-5-(trifluoromethyl)phenyl]methyl}-1,3-thiazole-4-carboxylate] | ≤ 1000
O=C(O)c1csc(Cc2cc(C(F)(F)F)ccc2OCc2ccc(Br)cc2)n1 [Example 31, Sodium 2-{[2-{[(4-bromophenyl)methyl]oxy}-5-(trifluoromethyl)phenyl]methyl}-1,3-thiazole-4-carboxylate] | ≤ 31.6
O=C(O)c1csc(Cc2cc(Cl)ccc2OCc2cc(F)c(F)c(F)c2)n1 [Example 21, Sodium 2-[(5-chloro-2-{[(3,4,5-trifluorophenyl)methyl]oxy}phenyl)methyl]-1,3-thiazole-4-carboxylate] | ≤ 1000
O=C(O)c1csc(Cc2cc(C(F)(F)F)ccc2OCc2ccc(Cl)cc2F)n1 [Example 32, Sodium 2-{[2-{[(4-chloro-2-fluorophenyl)methyl]oxy}-5-(trifluoromethyl)phenyl]methyl}-1,3-thiazole-4-carboxylate] | ≤ 31.6
O=C(O)c1csc(Cc2cc(Cl)ccc2OCc2cc(F)c(F)cc2F)n1 [Example 18, Sodium 2-[(5-chloro-2-{[(2,4,5-trifluorophenyl)methyl]oxy}phenyl)methyl]-1,3-thiazole-4-carboxylate] | ≤ 31.6
O=C(O)c1csc(Cc2cc(Cl)ccc2OCc2ccc(Br)cc2F)n1 [Example 22, Sodium 2-[(2-{[(4-bromo-2-fluorophenyl)methyl]oxy}-5-chlorophenyl)methyl]-1,3-thiazole-4-carboxylate] | ≤ 31.6
O=C(O)c1csc(Cc2cc(Cl)ccc2OCC2CCCC2)n1 [Example 27, Sodium 2-({5-chloro-2-[(cyclopentylmethyl)oxy]phenyl}methyl)-1,3-thiazole-4-carboxylate] | ≤ 31.6
O=C(O)c1csc(Cc2cc(Cl)ccc2OCc2c(F)cc(F)cc2F)n1 [Example 13, 2-[(5-chloro-2-{[(2,4,6-trifluorophenyl)methyl]oxy}phenyl)methyl]-1,3-thiazole-4-carboxylicacid] | ≤ 31.6
O=C(O)c1csc(Cc2cc(C(F)(F)F)ccc2OCc2ccc(F)cc2F)n1 [Example 26, Sodium 2-{[2-{[(2,4-difluorophenyl)methyl]oxy}-5-(trifluoromethyl)phenyl]methyl}-1,3-thiazole-4-carboxylate] | ≤ 31.6
O=C(O)c1csc(Cc2cc(Cl)ccc2OCc2ccccc2Cl)n1 [Example 15, 2-[(5-chloro-2-{[(2-chlorophenyl)methyl]oxy}phenyl)methyl]-1,3-thiazole-4-carboxylicacid] | ≤ 31.6
NC(=O)c1nc(Cc2cc(Cl)ccc2OCc2cc(F)c(F)cc2F)cs1 [Example 8, 4-[(5-chloro-2-{[(2,4,5-trifluorophenyl)methyl]oxy}phenyl)methyl]-1,3-thiazole-2-carboxamide] | ≤ 1000
NC(=O)c1nc(Cc2cc(Cl)ccc2OCc2ccccc2F)cs1 [Example 2, 4-[(5-chloro-2-{[(2-fluorophenyl)methyl]oxy}phenyl)methyl]-1,3-thiazole-2-carboxamide] | ≤ 1000

Now from value to molecule:

IC50 [nM] | SMILES
≤ 31.6 | O=C(O)c1nc(Cc2cc(Cl)ccc2OCc2ccccc2F)cs1 [Example 84, Sodium 4-[(5-chloro-2-{[(2-fluorophenyl)methyl]oxy}-phenyl)methyl]-1,3-thiazole-2-carboxylate]
≤ 31.6 | CC(C)CCOc1ccc(C(F)(F)F)cc1Cc1nc(C(=O)O)cs1 [Example 41, Sodium 2-{[2-[(3-methylbutyl)oxy]-5-(trifluoromethyl)phenyl]methyl}-1,3-thiazole-4-carboxylate]
≤ 1000 | O=C(O)Cc1csc(-c2cc(Cl)ccc2OCc2cc(F)c(F)c(F)c2)n1 [Example 69, Sodium [2-(5-chloro-2-{[(3,4,5-trifluorophenyl)methyl]oxy}phenyl)-1,3-thiazol-4-yl]acetate]
≤ 31.6 | CC(C)COc1ccc(Cl)cc1Cc1nc(-c2nc3cc(N4CCN(C)CC4)ccc3[nH]2)co1 [Example 163, 2-[2-({5-Chloro-2-[(2-methylpropyl)oxy]phenyl}methyl)-1,3-oxazol-4-yl]-5-(4-methyl-1-piperazinyl)-1H-benzimidazoletrihydrochloride]
≤ 31.6 | O=C(O)c1nc(Cc2cc(Cl)ccc2OCc2ccc(F)cc2)cs1 [Example 77, Sodium 4-[(5-chloro-2-{[(4-fluorophenyl)methyl]oxy}phenyl)methyl]-1,3-thiazole-2-carboxylate]
≤ 1000 | CCCCOc1ccc(C(F)(F)F)cc1Cc1nc(C(=O)O)cs1 [Example 38, Sodium 2-{[2-(butyloxy)-5-(trifluoromethyl)phenyl]methyl}-1,3-thiazole-4-carboxylate]
≤ 1000 | O=C(O)c1csc(Cc2cc(C(F)(F)F)ccc2OCc2ccc(F)c(F)c2F)n1 [Example 35, Sodium 2-{[5-(trifluoromethyl)-2-{[(2,3,4-trifluorophenyl)methyl]oxy}phenyl)methyl]-1,3-thiazole-4-carboxylate]
≤ 31.6 | CCCOc1ccc(C(F)(F)F)cc1Cc1nc(C(=O)O)cs1 [Example 37, Sodium 2-{[2-(propyloxy)-5-(trifluoromethyl)phenyl]methyl}-1,3-thiazole-4-carboxylate]
≤ 31.6 | O=C(O)c1csc(Cc2cc(Br)ccc2OCc2ccccc2F)n1 [Example 51, Sodium 2-[(5-bromo-2-{[(2-fluorophenyl)methyl]oxy}phenyl)methyl]-1,3-thiazole-4-carboxylate]
≤ 31.6 | O=C(O)c1csc(Cc2cc(C(F)(F)F)ccc2OCC2CCCC2)n1 [Example 45, Sodium 2-{[2-[(cyclopentylmethyl)oxy]-5-(trifluoromethyl)phenyl]methyl}-1,3-thiazole-4-carboxylate]
≤ 1000 | O=C(O)Cc1csc(-c2cc(Cl)ccc2OCc2c(F)ccc(F)c2F)n1 [Example 67, Sodium [2-(5-chloro-2-{[(2,3,6-trifluorophenyl)methyl]oxy}phenyl)-1,3-thiazol-4-yl]acetate]
≤ 31.6 | O=C(O)c1csc(Cc2cc(Br)ccc2OCc2ccccc2)n1 [Example 57, Sodium 2-({5-bromo-2-[(phenylmethyl)oxy]phenyl}methyl)-1,3-thiazole-4-carboxylate]
≤ 1000 | O=C(O)c1csc(Cc2cc(Br)ccc2OCc2c(F)cc(F)cc2F)n1 [Example 55, Sodium 2-[(5-bromo-2-{[(2,4,6-trifluorophenyl)methyl]oxy}phenyl)methyl]-1,3-thiazole-4-carboxylate]
≤ 31.6 | O=C(O)c1nc(Cc2cc(Cl)ccc2OCc2ccc(Cl)cc2)cs1 [Example 86, Sodium 4-[(5-chloro-2-{[(4-chlorophenyl)methyl]-oxy}phenyl)methyl]-1,3-thiazole-2-carboxylate]
≤ 31.6 | O=C(O)c1csc(Cc2cc(Br)ccc2OCc2ccc(F)cc2F)n1 [Example 53, Sodium 2-[(5-bromo-2-{[(2,4-difluorophenyl)methyl]oxy}phenyl)methyl]-1,3-thiazole-4-carboxylate]
≤ 31.6 | O=C(O)c1csc(Cc2cc(Br)ccc2OCc2ccc(F)cc2)n1 [Example 52, Sodium 2-[(5-bromo-2-{[(4-fluorophenyl)methyl]oxy}phenyl)methyl]-1,3-thiazole-4-carboxylate]
≤ 31.6 | O=C(O)Cc1csc(-c2cc(Cl)ccc2OCc2ccc(Cl)cc2)n1 [Example 71, Sodium [2-(5-chloro-2-{[(4-chlorophenyl)methyl]oxy}phenyl)-1,3-thiazol-4-yl]acetate]
